Measurements published in patent US12286425B2, “Herbicidally active bicyclic benzamides” (Bayer Aktiengesellschaft, priority 2018, dated 2025).

What was measured:
Format in all cases: in vivo
AVEFA = assay: Pre-emergence herbicidal action (PE), greenhouse pot test, AVEFA; conditions: for herbicidal activity AVEFA: pre-emergence (PE), application rate 320, scored visually after about 3 weeks vs untreated controls, 100% = plants have died, 0% = like control plants
Description: (§1) 1. Pre-emergence herbicidal action and crop plant compatibility (pre-emergence, PE) Seeds of monocotyledonous and dicotyledonous weed plants and crop plants are placed in plastic or organic planting pots and covered with soil. The compounds of the invention, formulated in the form of wettable powders (WP) or as emulsion concentrates (EC), are then applied onto the surface of the covering soil as aqueous suspension or emulsion with addition of 0.5% additive at a water application rate of […] (converted). After the treatment, the pots are placed in a greenhouse and kept under good growth conditions for the trial plants. After about 3 weeks, the effect of the preparations is scored visually in comparison with untreated controls as percentages. The tables below show the herbicidal activity of numerous compounds according to the invention against important harmful plants. For example, 100% activity=the plants have died, 0% activity=like control plants.

SETVI = assay: Pre-emergence herbicidal action (PE), greenhouse pot test, SETVI; conditions: for Herbicidal activity SETVI: pre-emergence (PE)
Description: as §1

[1] = test system: monocotyledonous and dicotyledonous weed plants and crop plants; assay: Pre-emergence herbicidal action and crop plant compatibility (PE), other species and comparison with A-117; conditions: for Herbicidal activity ABUTH: Abutilon theophrasti; for Herbicidal activity AMARE: Amaranthus retroflexus; for Herbicidal activity CYPES: Cyperus esculentus; for Herbicidal activity ECHCG: Echinochloa crus-galli; for Herbicidal activity MATIN: Matricaria inodora; for Herbicidal activity POLCO: Polygonum convolvulus; for Herbicidal activity STEME: Stellaria media; for Herbicidal activity VIOTR: Viola tricolor
Description: as §1
(§2) In a comparative experiment, by way of example, the herbicidal activity of compound No. 2-13 according to the invention was compared to that of compound No. A-117 known from WO 2013/076315 A2.

[2] = test system: monocotyledonous and dicotyledonous weeds and crop plants; assay: Post-emergence herbicidal action and crop plant compatibility (PO), including comparison with A-117; conditions: for Herbicidal activity ABUTH / Herbicidal activity AMARE / Herbicidal activity CYPES / Herbicidal activity ECHCG / Herbicidal activity PHBPU / Herbicidal activity SETVI / Herbicidal activity STEME / Herbicidal activity VIOTR / Herbicidal activity ALOMY / herbicidal activity AVEFA / Herbicidal activity LOLMU / Herbicidal activity MATIN / Herbicidal activity POLCO / Herbicidal activity VERPE: post-emergence (PO); for Herbicidal activity ABUTH: Abutilon theophrasti; for Herbicidal activity AMARE: Amaranthus retroflexus; for Herbicidal activity CYPES: Cyperus esculentus; for Herbicidal activity ECHCG: Echinochloa crus-galli; for Herbicidal activity PHBPU: Ipomoea purpurea; for Herbicidal activity SETVI: Setaria viridis; for Herbicidal activity STEME: Stellaria media; for Herbicidal activity VIOTR: Viola tricolor; for Herbicidal activity ALOMY: Alopecurus myosuroides; for herbicidal activity AVEFA: Avena fatua; for Herbicidal activity LOLMU: Lolium multiflorum; for Herbicidal activity MATIN: Matricaria inodora; for Herbicidal activity POLCO: Polygonum convolvulus; for Herbicidal activity VERPE: Veronica persica
Description: 2. Post-emergence herbicidal action and crop plant compatibility (post-emergence, PO) Seeds of monocotyledonous and dicotyledonous weeds and crop plants are placed in sandy loam in plastic or organic planting pots, covered with soil and cultivated in a greenhouse under controlled growth conditions. 2 to 3 weeks after sowing, the test plants are treated at the one-leaf stage. The compounds of the invention, formulated in the form of wettable powders (WP) or as emulsion concentrates (EC), are then sprayed onto the green parts of the plants as aqueous suspension or emulsion with addition of 0.5% additive at a water application rate of […] (converted). After the test plants had been kept in the greenhouse under optimum growth conditions for about 3 weeks, the activity of the preparations is rated visually in comparison to untreated controls. The tables below show the herbicidal activity of numerous compounds according to the invention against important harmful plants. For example, 100% activity=the plants have died, 0% activity=like control plants.
as §2

[3] = Setaria viridis, application rate 320, scored visually after about 3 weeks
[4] = pre-emergence (PE), application rate 320, scored visually after about 3 weeks
[5] = application rate 80, rated visually after about 3 weeks
[6] = pre-emergence (PE), application rate 80, scored visually after about 3 weeks
[7] = application rate 20, rated visually after about 3 weeks

Row | Compound | herbicidal activity AVEFA (AVEFA) | Herbicidal activity SETVI (SETVI; [3]) | Herbicidal activity ABUTH [1, 4] | Herbicidal activity AMARE [1, 4] | Herbicidal activity CYPES [1, 4] | Herbicidal activity ECHCG [1, 4] | Herbicidal activity MATIN [1, 4] | Herbicidal activity POLCO [1, 4] | Herbicidal activity STEME [1, 4] | Herbicidal activity VIOTR [1, 4] | Herbicidal activity ABUTH [2, 5] | Herbicidal activity AMARE [2, 5] | Herbicidal activity ECHCG [2, 5] | Herbicidal activity PHBPU [2, 5] | Herbicidal activity SETVI [2, 5] | Herbicidal activity STEME [2, 5] | Herbicidal activity VIOTR [2, 5] | herbicidal activity AVEFA [2, 5] | Herbicidal activity POLCO [2, 5] | Herbicidal activity VERPE [2, 5] | further results
1 | CCn1nnnc1NC(=O)c1ccc(C(F)(F)F)c2c1OCCS2(=O)=O [Example 3-19] | 90% | 100% | 100% | 100% | 100% | 100% | 100% | 90% | 90% | 100% | 90% | 90% | 100% | 90% | 90% | 100% | 100% |  |  |  | Herbicidal activity CYPES [2, 5]: 80%
2 | Cn1nnnc1NC(=O)c1ccc(C(F)(F)F)c2c1OCCS2 [Example 2-13, 5-(trifluoromethyl)-2,3-dihydro-1,4-benzoxathiine-N-(1-methyltetrazol-5-yl)-8-carboxamide] | 80% | 100% | 100% | 100% | 90% | 100% | 100% | 80% | 90% | 100% | 100% | 90% | 90% | 90% | 90% | 90% | 100% | 90% | 80% | 100% | Herbicidal action against AVEFA (AVEFA; pre-emergence (PE) comparative experiment with A-117, Avena fatua, dosage 320 g/ha): 80%; Herbicidal action against SETVI (SETVI; pre-emergence (PE) comparative experiment with A-117, Setaria viridis, dosage 320 g/ha): 100%; Herbicidal action against ABUTH ([1]; pre-emergence (PE) comparative experiment with A-117, Abutilon theophrasti, dosage 320 g/ha): 100%; Herbicidal action against ALOMY ([1]; pre-emergence (PE) comparative experiment with A-117, Alopecurus myosuroides, dosage 320 g/ha): 90%; Herbicidal action against MATIN ([1]; pre-emergence (PE) comparative experiment with A-117, Matricaria inodora, dosage 320 g/ha): 100%; herbicidal activity compared to compound No. A-117 ([1]; pre-emergence comparative experiment, numerous harmful plants): superiority of the compound according to the invention was demonstrated clearly; Herbicidal action against ABUTH ([2]; post-emergence (PO) comparative experiment with A-117, Abutilon theophrasti, dosage 80 g/ha): 100%; Herbicidal action against ALOMY ([2]; post-emergence (PO) comparative experiment with A-117, Alopecurus myosuroides, dosage 80 g/ha): 90%; Herbicidal action against AVEFA ([2]; post-emergence (PO) comparative experiment with A-117, Avena fatua, dosage 80 g/ha): 90%; Herbicidal action against LOLMU ([2]; post-emergence (PO) comparative experiment with A-117, Lolium multiflorum, dosage 80 g/ha): 80%; Herbicidal action against POLCO ([2]; post-emergence (PO) comparative experiment with A-117, Polygonum convolvulus, dosage 80 g/ha): 80%; Herbicidal activity ALOMY [2, 5]: 90%; Herbicidal activity LOLMU [2, 5]: 80%; Herbicidal activity MATIN [2, 5]: 90%; herbicidal activity compared to compound No. A-117 ([2]; post-emergence comparative experiment, numerous harmful plants): superiority of the compound according to the invention was demonstrated clearly
3 | Cn1nnnc1NC(=O)c1ccc(C(F)(F)F)c2c1S(=O)(=O)CCS2(=O)=O [Example 2-11] |  |  |  |  |  |  |  |  |  |  |  |  | 80% |  |  |  | 90% |  |  | 80% | Herbicidal activity ABUTH [1, 6]: 100%; Herbicidal activity AMARE [1, 6]: 80%; Herbicidal activity MATIN [1, 6]: 80%
4 | Cn1nnnc1NC(=O)c1ccc(C(F)(F)F)c2c1OCC(Cl)S2 (stereo not drawn) [Example 2-41] |  |  |  |  |  |  |  |  |  |  |  | 90% |  |  |  |  |  |  |  |  | 
5 | CCn1nnnc1NC(=O)c1ccc(C(F)(F)F)c2c1OCCS2 [Example 3-13, 5-(trifluoromethyl)-2,3-dihydro-1,4-benzoxathiine-N-(1-ethyltetrazol-5-yl)-8-carboxamide] | 80% | 100% | 100% | 100% | 100% | 100% | 90% | 90% | 100% | 100% | 100% | 90% | 100% | 90% | 90% | 100% | 100% | 90% | 100% |  | 
6 | Cn1nnnc1NC(=O)c1ccc(C(F)(F)F)c2c1OCC[S+]2[O-] (stereo not drawn) [Example 2-17, 5-(trifluoromethyl)-2,3-dihydro-1,4-benzoxathiine-N-(1-methyltetrazol-5-yl)-8-carboxamide 4-oxide] | 80% | 100% | 100% | 100% | 100% | 100% | 90% |  | 100% | 100% | 100% | 90% | 90% | 100% | 90% | 100% | 100% | 100% | 90% | 100% | Herbicidal activity ALOMY [2, 5]: 90%; Herbicidal activity CYPES [2, 5]: 100%; Herbicidal activity LOLMU [2, 5]: 90%; Herbicidal activity MATIN [2, 5]: 90%
7 | Cn1nnnc1NC(=O)c1ccc(C(F)(F)F)c2c1SCCS2 [Example 2-5, 5-(trifluoromethyl)-2,3-dihydro-1,4-benzodithiine-N-(1-methyltetrazol-5-yl)-8-carboxamide] |  |  |  |  |  |  |  |  |  |  |  |  |  |  |  |  |  |  |  |  | Herbicidal activity SETVI (SETVI; application rate 80, scored visually after about 3 weeks vs untreated controls, 100% = plants have died, 0% = like control plants): 90%; Herbicidal activity ABUTH [1, 6]: 100%; Herbicidal activity AMARE [1, 6]: 100%; Herbicidal activity MATIN [1, 6]: 100%; Herbicidal activity STEME [1, 6]: 90%; Herbicidal activity VERPE ([1]; pre-emergence (PE), Veronica persica, application rate 80, scored visually after about 3 weeks): 90%; Herbicidal activity VIOTR [1, 6]: 100%; Herbicidal activity ABUTH [2, 7]: 90%; Herbicidal activity AMARE [2, 7]: 100%; Herbicidal activity ECHCG [2, 7]: 90%; Herbicidal activity STEME [2, 7]: 80%; Herbicidal activity VIOTR [2, 7]: 80%
